Measurements as given in US20230053152A1, “Novel Quercetin Redox Derivative And Use Thereof As BET Inhibitor” (Benobio Co., Ltd., priority 2019, published 2023).

Key:
BRD2 (BD1) = biological target: T1, BRD2 (BD1) (Homo sapiens, UniProt P25440); assay: AlphaScreen binding inhibition of GST-BRD2 (BD1) and tetraacetylated histone H4 peptide; details: for IC50: AlphaScreen, acetyl-histone H4 peptide
T1 construct: 100 nM GST-BRD2 (BD1, BD2, BD1+BD2)

BRD4 (BD1 + BD2) = biological target: T2, BRD4 (BD1 + BD2) (Homo sapiens, UniProt O60885); assay: Binding inhibition of BRD4 (BD1+BD2), same manner as Test Example 1; details: AlphaScreen, acetyl-histone H4 peptide
T2 construct: on the BRD4 (BD1, BD2, BD1+BD2) protein; GST

BRD2 (BD1 + BD2) = biological target: T3, BRD2 (BD1 + BD2) (Homo sapiens, UniProt P25440); assay: AlphaScreen binding inhibition of GST-BRD2 (BD1+BD2) and tetraacetylated histone H4 peptide
T3 construct: 100 nM GST-BRD2 (BD1, BD2, BD1+BD2)
T3 sequence (P25440 74-453 limits assumed): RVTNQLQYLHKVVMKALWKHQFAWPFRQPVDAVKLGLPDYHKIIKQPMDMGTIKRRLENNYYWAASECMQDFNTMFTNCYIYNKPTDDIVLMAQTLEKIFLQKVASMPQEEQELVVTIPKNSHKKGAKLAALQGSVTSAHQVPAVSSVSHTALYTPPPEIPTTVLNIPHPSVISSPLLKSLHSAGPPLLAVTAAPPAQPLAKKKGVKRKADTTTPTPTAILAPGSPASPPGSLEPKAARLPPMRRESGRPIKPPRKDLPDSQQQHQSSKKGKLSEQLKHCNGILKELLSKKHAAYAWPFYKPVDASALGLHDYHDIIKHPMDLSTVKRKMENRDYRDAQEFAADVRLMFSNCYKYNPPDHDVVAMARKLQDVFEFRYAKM

BRD3 (BD1 + BD2) = biological target: T4, BRD3 (BD1 + BD2) (Homo sapiens, UniProt Q15059); assay: Binding inhibition of BRD3 (BD1+BD2), same manner as Test Example 1; details: AlphaScreen, acetyl-histone H4 peptide
T4 construct: on the BRD3 (BD1, BD2, BD1+BD2) protein; GST
T4 sequence (Q15059 34-415 limits assumed): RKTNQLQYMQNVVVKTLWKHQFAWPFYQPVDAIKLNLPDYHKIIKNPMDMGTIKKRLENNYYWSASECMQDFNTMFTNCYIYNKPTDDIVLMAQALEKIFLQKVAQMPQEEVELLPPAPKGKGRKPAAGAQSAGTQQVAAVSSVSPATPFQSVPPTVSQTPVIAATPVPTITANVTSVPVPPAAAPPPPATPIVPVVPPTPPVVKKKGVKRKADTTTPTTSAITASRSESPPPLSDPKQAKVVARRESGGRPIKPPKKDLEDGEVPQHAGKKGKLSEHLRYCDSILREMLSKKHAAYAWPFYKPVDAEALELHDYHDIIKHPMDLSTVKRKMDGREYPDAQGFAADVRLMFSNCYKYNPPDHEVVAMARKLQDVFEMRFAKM

BRD4 (BD1) = biological target: T5, BRD4 (BD1) (Homo sapiens, UniProt O60885); assay: Binding inhibition of BRD4 (BD1), same manner as Test Example 1; details: AlphaScreen, acetyl-histone H4 peptide
T5 construct: on the BRD4 (BD1, BD2, BD1+BD2) protein; GST

BRD2 (BD2) = biological target: T6, BRD2 (BD2) (Homo sapiens, UniProt P25440); assay: AlphaScreen binding inhibition of GST-BRD2 (BD2) and tetraacetylated histone H4 peptide; details: acetyl-histone H4 peptide
T6 construct: 100 nM GST-BRD2 (BD1, BD2, BD1+BD2)
T6 sequence (P25440 344-453 limits assumed): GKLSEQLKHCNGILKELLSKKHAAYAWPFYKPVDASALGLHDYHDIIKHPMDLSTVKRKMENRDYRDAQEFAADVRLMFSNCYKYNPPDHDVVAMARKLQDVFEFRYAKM

BRD3 (BD1) = biological target: T7, BRD3 (BD1) (Homo sapiens, UniProt Q15059); assay: Binding inhibition of BRD3 (BD1), same manner as Test Example 1; details: AlphaScreen, acetyl-histone H4 peptide
T7 construct: on the BRD3 (BD1, BD2, BD1+BD2) protein; GST
T7 sequence (Q15059 34-140 limits assumed): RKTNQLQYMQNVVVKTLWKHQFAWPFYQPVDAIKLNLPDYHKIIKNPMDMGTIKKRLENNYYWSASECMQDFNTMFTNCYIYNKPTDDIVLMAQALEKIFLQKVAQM

BRD3 (BD2) = biological target: T8, BRD3 (BD2) (Homo sapiens, UniProt Q15059); assay: Binding inhibition of BRD3 (BD2), same manner as Test Example 1; details: AlphaScreen, acetyl-histone H4 peptide
T8 construct: on the BRD3 (BD1, BD2, BD1+BD2) protein; GST
T8 sequence (Q15059 306-415 limits assumed): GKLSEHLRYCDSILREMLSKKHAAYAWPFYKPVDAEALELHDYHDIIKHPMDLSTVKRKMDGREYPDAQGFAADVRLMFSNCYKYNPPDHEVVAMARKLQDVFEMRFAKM

T1 sequence (P25440 74-180 limits assumed): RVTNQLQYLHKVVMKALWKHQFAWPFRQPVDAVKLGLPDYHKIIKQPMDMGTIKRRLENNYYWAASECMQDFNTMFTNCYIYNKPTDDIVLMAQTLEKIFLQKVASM

Row | SMILES | IC50 (BRD2 (BD1)) [µM] | IC50 (BRD3 (BD1)) [µM] | further results
1 | O=c1c(O)c(-c2ccc3[nH]cnc3c2)oc2cc(O)cc(O)c12 [BBC0109, 2-(1H-benzodiimidazol-5-yl)-3,5,7-trihydroxy-4H-chromen-4-one] | 8.63 |  | IC50 (BRD4 (BD1 + BD2)): 15.6 µM; IC50 (BRD2 (BD1 + BD2); AlphaScreen, acetyl-histone H4 peptide): 9.7 µM; IC50 value of BRD2 (BD1+BD2) as compared to the compound of Comparative Example 1 (BRD2 (BD1 + BD2); relative to RVX-208): about 30%; IC50 value of BRD2 (BD1) as compared to the compound of Comparative Example 1 (BRD2 (BD1); relative to RVX-208): about 30%; IC50 (BRD3 (BD1 + BD2)): 20.8 µM
2 | O=c1[nH]c2ccc(-c3oc4cc(O)cc(O)c4c(=O)c3O)cc2[nH]1 [BBC0110, 5-(3,5,7-trihydroxy-4-oxo-chromen-2-yl)-1,3-dihydrobenzimidazol-2-one] | 9.06 |  | IC50 (BRD4 (BD1 + BD2)): 38.6 µM; IC50 (BRD4 (BD1)): 15.5 µM; IC50 (BRD3 (BD1 + BD2)): 20.1 µM
3 | O=c1c(O)c(-c2ccc3[nH]ccc3c2)oc2cc(O)cc(O)c12 [BBC0114, 3,5,7-trihydroxy-2-(1H-indol-5-yl)chromen-4-one] | 4.14 | 7.98 | IC50 (BRD3 (BD1 + BD2)): 51.3 µM
4 | COc1cc(OC)c2c(=O)[nH]c(-c3cc(C)c(OCCO)c(C)c3)cc2c1 [BBC0204, reference compound] |  |  | IC50 (BRD4 (BD1 + BD2)): 97.2 µM; IC50 (BRD4 (BD1)): 35.1 µM
5 | COc1cc(OC)c2[nH]c(-c3cc(C)c(OCCO)c(C)c3)nc2c1 [BBC0206, reference compound] |  |  | IC50 (BRD4 (BD1 + BD2)): > 20 µM; IC50 (BRD4 (BD1)): > 50 µM
6 | O=c1c(O)c(-c2ccc(OC3COC3)c(O)c2)oc2cc(O)cc(O)c12 [BBC0301, 3,5,7-trihydroxy-2-[13-hydroxy-4-(oxetan-3-yloxy)phenyl]chromen-4-one] | 16.9 |  | IC50 (BRD4 (BD1 + BD2)): 30.3 µM; IC50 (BRD3 (BD1 + BD2)): 29.4 µM
7 | O=c1c(O)c(-c2ccc(OC3COC3)cc2)oc2cc(O)cc(O)c12 [BBC0302, 3,5,7-trihydroxy-2-[4-(oxetan-3-yloxy)phenyl]chromen-4-one] | 2.4 |  | 
8 | Cc1cc(-c2oc3cc(O)cc(O)c3c(=O)c2O)cc(O)c1OC1COC1 [BBC0305, 3,5,7-trihydroxy-2-[3-hydroxy-5-methyl-4-(oxetan-3-yloxy)phenyl]chromen-4-one] | 6.55 | 3 | 
9 | Cc1cc(-c2oc3cc(O)cc(O)c3c(=O)c2O)cc(C)c1OC1COC1 [BBC0306, 2-[3,5-dimethyl-4-(oxetan-3-yloxy)phenyl]-3,5,7-trihydroxy-chromen-4-one] | 2.71 | 1.41 | IC50 (BRD3 (BD2)): 1.34 µM
10 | O=c1c(O)c(-c2ccc3c(c2)CCCO3)oc2cc(O)cc(O)c12 [BBC0309] | 7.03 | 1.46 | 
11 | O=c1c(O)c(-c2ccc3c(c2)CCO3)oc2cc(O)cc(O)c12 [BBC0311, 2-(2,3-dihydrobenzofuran-5-yl)-3,5,7-trihydroxy-chromen-4-one] | 5.85 | 7.2 | IC50 (BRD2 (BD2)): 3.79 µM

Now from value to compound, other results behind:

Row | IC50 (BRD2 (BD1)) [µM] | IC50 (BRD3 (BD1)) [µM] | SMILES | further results
12 | 8.52 |  | O=c1c(O)c(-c2ccc(O)c(O)c2)oc2cccc(O)c12 [BBC0104, 2-(3,4-dihydroxyphenyl)-3,5-dihydroxy-chromen-4-one] | 
13 | 8.88 |  | O=c1c(O)c(-c2ccc(O)c(O)c2)oc2cc(O)ccc12 [BBC0105, 2-(3,4-dihydroxyphenyl)-3,7-dihydroxy-chromen-4-one] | 
14 | 12.2 | 17.1 | O=c1[nH]c2ccc(-c3oc4cc(O)cc(O)c4c(=O)c3O)cc2o1 [BBC0113, 6-(3,5,7-trihydroxy-4-oxo-chromen-2-yl)-3H-1,3-benzoxazol-2-one] | IC50 (BRD2 (BD2)): 5.11 µM
15 | 5.24 | 7.18 | O=c1c(O)c(-c2ccc3cc[nH]c3c2)oc2cc(O)cc(O)c12 [BBC0115, 3,5,7-trihydroxy-2-(1H-indol-6-yl)chromen-4-one] | IC50 (BRD3 (BD1 + BD2)): 86 µM
16 | 8.35 | 3.18 | O=c1c(O)c(-c2ccc(O)c(OC3COC3)c2)oc2cc(O)cc(O)c12 [BBC0303, 3,5,7-trihydroxy-2-[4-hydroxy-3-(oxetan-3-yloxy)phenyl]chromen-4-one] | IC50 (BRD3 (BD1 + BD2)): 95.6 µM
17 | 18.5 | 9.29 | Cc1cc(-c2oc3cc(O)cc(O)c3c(=O)c2O)cc(OC2COC2)c1O [BBC0307] | IC50 (BRD4 (BD1 + BD2)): 87.3 µM
18 | 10.1 | 3.26 | O=c1c(O)c(-c2ccc3occc3c2)oc2cc(O)cc(O)c12 [BBC0310, 2-(benzofuran-5-yl)-3,5,7-trihydroxy-chromen-4-one] | 
19 | 3.69 | 2.64 | O=c1c(O)c(-c2ccc3c(c2)OCC3)oc2cc(O)cc(O)c12 [BBC0312, 2-(2,3-dihydrobenzofuran-6-yl)-3,5,7-trihydroxy-chromen-4-one] | 
20 | 4.63 | 1.9 | O=c1c(O)c(-c2ccc3ccoc3c2)oc2cc(O)cc(O)c12 [BBC0313, 2-(benzofuran-6-yl)-3,5,7-trihydroxy-chromen-4-one] | IC50 (BRD2 (BD2)): 0.499 µM
21 |  | 11.1 | COc1cc(OC)c2c(=O)[nH]c(-c3cc(C)c4c(c3)CCO4)nc2c1 [BBC0406, 5,7-dimethoxy-2-(7-methyl-2,3-dihydrobenzofuran-5-yl)-3H-quinazolin-4-one] | 
